# Reference: PubChem BioAssay AID1963828 (Molecular Pharmacology Branch, DTP, NCI, 2024)
# Tested on: 991263-137-R1-J2-PDC complex spheroid viability
# Test: Anticancer human tumor 991263-137-R1-J2-PDC patient-derived colon adenocarcinoma cell line growth inhibition [POLQ]
# Details: for IC50: curve of first compound; for viability, T/C: stronger effect = lower value
# Procedure, shortened: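 Complex spheroid viability model combining PDC tumour cells with endothelial (HUVEC) and MSC stromal cells. Novobiocin, ART-558 or RP6685 were tested singly and in combination with standard and investigational anticancer drugs. Each was titrated in half-log steps from near clinical Cmax, or from 10 microM where Cmax was unknown.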
# [1] = second compound 0.0316 µM, first compound 0.0316 µM
# [2] = second compound 0.0316 µM, first compound 0.1 µM
# [3] = second compound 0.0316 µM, first compound 0.316 µM
# [4] = second compound 0.0316 µM, first compound 1 µM
# [5] = second compound 0.0316 µM, first compound 3.16 µM
# [6] = second compound 0.0316 µM, first compound 10 µM
# [7] = second compound 0.1 µM, first compound 0.0316 µM
# [8] = second compound 0.1 µM, first compound 0.1 µM
# [9] = second compound 0.1 µM, first compound 0.316 µM
# [10] = second compound 0.1 µM, first compound 1 µM
# [11] = second compound 0.1 µM, first compound 3.16 µM
# [12] = second compound 0.1 µM, first compound 10 µM
# [13] = second compound 0.316 µM, first compound 0.0316 µM
# [14] = second compound 0.316 µM, first compound 0.1 µM
# [15] = second compound 0.316 µM, first compound 0.316 µM
# [16] = second compound 0.316 µM, first compound 1 µM
# [17] = second compound 0.316 µM, first compound 3.16 µM
# [18] = second compound 0.316 µM, first compound 10 µM
# [19] = second compound 1 µM, first compound 0.0316 µM
# [20] = second compound 1 µM, first compound 0.1 µM
# [21] = second compound 1 µM, first compound 0.316 µM
# [22] = second compound 1 µM, first compound 1 µM
# [23] = second compound 1 µM, first compound 3.16 µM
# [24] = second compound 1 µM, first compound 10 µM
# [25] = second compound 3.16 µM, first compound 0.0316 µM
# [26] = second compound 3.16 µM, first compound 0.1 µM
# [27] = second compound 3.16 µM, first compound 0.316 µM
# [28] = second compound 3.16 µM, first compound 1 µM
# [29] = second compound 3.16 µM, first compound 3.16 µM
# [30] = second compound 3.16 µM, first compound 10 µM
# [31] = second compound 10 µM, first compound 0.0316 µM
# [32] = second compound 10 µM, first compound 0.1 µM
# [33] = second compound 10 µM, first compound 0.316 µM
# [34] = second compound 10 µM, first compound 1 µM
# [35] = second compound 10 µM, first compound 3.16 µM
# [36] = second compound 10 µM, first compound 10 µM
# 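Further: spheroids exposed to compounds for 7 days before readout.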
# 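Wherever viability, T/C is given: 100% = DMSO vehicle control viability.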
compound,measurement,setting,value
C=CC(=O)N1CCN(c2nc(=O)n(-c3c(C)ccnc3C(C)C)c3nc(-c4c(O)cccc4F)c(F)cc23)C(C)C1 (stereo not given) + COC1C(OC(N)=O)C(O)C(Oc2ccc3c(O)c(NC(=O)c4ccc(O)c(CC=C(C)C)c4)c(=O)oc3c2C)OC1(C)C,IC50,second compound 0.0316 µM,> 10 µM
same,IC50,second compound 0.1 µM,> 10 µM
same,IC50,second compound 0.316 µM,> 10 µM
same,IC50,second compound 1 µM,> 10 µM
same,IC50,second compound 3.16 µM,> 10 µM
same,IC50,second compound 10 µM,> 10 µM
same,"viability, T/C",[1],114%
same,"viability, T/C",[2],123%
same,"viability, T/C",[3],115%
same,"viability, T/C",[4],103%
same,"viability, T/C",[5],104%
same,"viability, T/C",[6],93.3%
same,"viability, T/C",[7],108%
same,"viability, T/C",[8],129%
same,"viability, T/C",[9],115%
same,"viability, T/C",[10],115%
same,"viability, T/C",[11],114%
same,"viability, T/C",[12],95.5%
same,"viability, T/C",[13],115%
same,"viability, T/C",[14],124%
same,"viability, T/C",[15],109%
same,"viability, T/C",[16],98.8%
same,"viability, T/C",[17],133%
same,"viability, T/C",[18],99.9%
same,"viability, T/C",[19],107%
same,"viability, T/C",[20],106%
same,"viability, T/C",[21],110%
same,"viability, T/C",[22],120%
same,"viability, T/C",[23],115%
same,"viability, T/C",[24],119%
same,"viability, T/C",[25],98.8%
same,"viability, T/C",[26],110%
same,"viability, T/C",[27],109%
same,"viability, T/C",[28],114%
same,"viability, T/C",[29],104%
same,"viability, T/C",[30],122%
same,"viability, T/C",[31],88.3%
same,"viability, T/C",[32],124%
same,"viability, T/C",[33],123%
same,"viability, T/C",[34],109%
same,"viability, T/C",[35],117%
same,"viability, T/C",[36],104%
CC(C)n1c(=O)n(C)c2cnc3cc(F)c(-c4ccc(OCCCN5CCCCC5)nc4)cc3c21 + COC1C(OC(N)=O)C(O)C(Oc2ccc3c(O)c(NC(=O)c4ccc(O)c(CC=C(C)C)c4)c(=O)oc3c2C)OC1(C)C,IC50,second compound 0.0316 µM,> 10 µM
same,IC50,second compound 0.1 µM,> 10 µM
same,IC50,second compound 0.316 µM,> 10 µM
same,IC50,second compound 1 µM,> 10 µM
same,IC50,second compound 3.16 µM,> 10 µM
same,IC50,second compound 10 µM,> 10 µM
same,"viability, T/C",[1],107%
same,"viability, T/C",[2],109%
same,"viability, T/C",[3],118%
same,"viability, T/C",[4],101%
same,"viability, T/C",[5],103%
same,"viability, T/C",[6],82.7%
same,"viability, T/C",[7],91.5%
same,"viability, T/C",[8],106%
same,"viability, T/C",[9],116%
same,"viability, T/C",[10],99%
same,"viability, T/C",[11],102%
same,"viability, T/C",[12],82.1%
same,"viability, T/C",[13],86.3%
same,"viability, T/C",[14],114%
same,"viability, T/C",[15],117%
same,"viability, T/C",[16],96.9%
same,"viability, T/C",[17],106%
same,"viability, T/C",[18],96.2%
same,"viability, T/C",[19],109%
same,"viability, T/C",[20],106%
same,"viability, T/C",[21],112%
same,"viability, T/C",[22],83.5%
same,"viability, T/C",[23],109%
same,"viability, T/C",[24],90%
same,"viability, T/C",[25],111%
same,"viability, T/C",[26],116%
same,"viability, T/C",[27],110%
same,"viability, T/C",[28],108%
same,"viability, T/C",[29],95.3%
same,"viability, T/C",[30],96.1%
same,"viability, T/C",[31],95.1%
same,"viability, T/C",[32],119%
same,"viability, T/C",[33],117%
same,"viability, T/C",[34],114%
same,"viability, T/C",[35],107%
same,"viability, T/C",[36],96.6%
CCc1cc2c(N3CCc4c(cc(Cn5ccnc5)cc4-c4cn(C)nc4C(F)(F)F)C3=O)ccnc2c(OC)n1 + COC1C(OC(N)=O)C(O)C(Oc2ccc3c(O)c(NC(=O)c4ccc(O)c(CC=C(C)C)c4)c(=O)oc3c2C)OC1(C)C,IC50,second compound 0.0316 µM,> 10 µM
same,IC50,second compound 0.1 µM,> 10 µM
same,IC50,second compound 0.316 µM,> 10 µM
same,IC50,second compound 1 µM,> 10 µM
same,IC50,second compound 3.16 µM,> 10 µM
same,IC50,second compound 10 µM,> 10 µM
same,"viability, T/C",[1],99.5%
same,"viability, T/C",[2],104%
same,"viability, T/C",[3],110%
same,"viability, T/C",[4],87.6%
same,"viability, T/C",[5],102%
same,"viability, T/C",[6],86.7%
same,"viability, T/C",[7],104%
same,"viability, T/C",[8],110%
same,"viability, T/C",[9],87.4%
same,"viability, T/C",[10],100%
same,"viability, T/C",[11],90.8%
same,"viability, T/C",[12],81%
same,"viability, T/C",[13],105%
same,"viability, T/C",[14],108%
same,"viability, T/C",[15],97.1%
same,"viability, T/C",[16],104%
same,"viability, T/C",[17],95.4%
same,"viability, T/C",[18],99.9%
same,"viability, T/C",[19],101%
same,"viability, T/C",[20],107%
same,"viability, T/C",[21],93.9%
same,"viability, T/C",[22],86.3%
same,"viability, T/C",[23],102%
same,"viability, T/C",[24],90.7%
same,"viability, T/C",[25],99.2%
same,"viability, T/C",[26],122%
same,"viability, T/C",[27],113%
same,"viability, T/C",[28],96.4%
same,"viability, T/C",[29],106%
same,"viability, T/C",[30],107%
same,"viability, T/C",[31],113%
same,"viability, T/C",[32],106%
same,"viability, T/C",[33],108%
same,"viability, T/C",[34],109%
same,"viability, T/C",[35],101%
same,"viability, T/C",[36],91.3%
COc1cc2cc(C(=O)CCC(=O)O)sc2cc1OC + COC1C(OC(N)=O)C(O)C(Oc2ccc3c(O)c(NC(=O)c4ccc(O)c(CC=C(C)C)c4)c(=O)oc3c2C)OC1(C)C,IC50,second compound 0.0316 µM,> 10 µM
same,IC50,second compound 0.1 µM,> 10 µM
same,IC50,second compound 0.316 µM,> 10 µM
same,IC50,second compound 1 µM,> 10 µM
same,IC50,second compound 3.16 µM,> 10 µM
same,IC50,second compound 10 µM,> 10 µM
same,"viability, T/C",[1],97%
same,"viability, T/C",[2],109%
same,"viability, T/C",[3],103%
same,"viability, T/C",[4],83.6%
same,"viability, T/C",[5],89.7%
same,"viability, T/C",[6],95.1%
same,"viability, T/C",[7],99.9%
same,"viability, T/C",[8],105%
same,"viability, T/C",[9],99.7%
same,"viability, T/C",[10],90.4%
same,"viability, T/C",[11],116%
same,"viability, T/C",[12],83%
same,"viability, T/C",[13],119%
same,"viability, T/C",[14],130%
same,"viability, T/C",[15],112%
same,"viability, T/C",[16],110%
same,"viability, T/C",[17],94%
same,"viability, T/C",[18],96.8%
same,"viability, T/C",[19],108%
same,"viability, T/C",[20],107%
same,"viability, T/C",[21],115%
same,"viability, T/C",[22],110%
same,"viability, T/C",[23],91.9%
same,"viability, T/C",[24],90.2%
same,"viability, T/C",[25],114%
same,"viability, T/C",[26],97.9%
same,"viability, T/C",[27],90.2%
same,"viability, T/C",[28],118%
same,"viability, T/C",[29],121%
same,"viability, T/C",[30],80.5%
same,"viability, T/C",[31],117%
same,"viability, T/C",[32],112%
same,"viability, T/C",[33],109%
same,"viability, T/C",[34],97.7%
same,"viability, T/C",[35],126%
same,"viability, T/C",[36],88.7%
COc1ccc([C@@H](O)c2cc(-c3ncnc4cc(N5CCOCC5)ccc34)c(F)cc2Cl)nn1 + COC1C(OC(N)=O)C(O)C(Oc2ccc3c(O)c(NC(=O)c4ccc(O)c(CC=C(C)C)c4)c(=O)oc3c2C)OC1(C)C,IC50,second compound 0.0316 µM,5.41 µM
same,IC50,second compound 0.1 µM,4.12 µM
same,IC50,second compound 0.316 µM,5.53 µM
same,IC50,second compound 1 µM,2.94 µM
same,IC50,second compound 3.16 µM,6.38 µM
same,IC50,second compound 10 µM,6.09 µM
same,"viability, T/C",[1],107%
same,"viability, T/C",[2],96.3%
same,"viability, T/C",[3],90.8%
same,"viability, T/C",[4],76.2%
same,"viability, T/C",[5],71.7%
same,"viability, T/C",[6],31.5%
same,"viability, T/C",[7],99.8%
same,"viability, T/C",[8],98.3%
same,"viability, T/C",[9],84.6%
same,"viability, T/C",[10],91.7%
same,"viability, T/C",[11],55.6%
same,"viability, T/C",[12],30.9%
same,"viability, T/C",[13],82.7%
same,"viability, T/C",[14],107%
same,"viability, T/C",[15],88.5%
same,"viability, T/C",[16],71%
same,"viability, T/C",[17],70.5%
same,"viability, T/C",[18],33%
same,"viability, T/C",[19],95.3%
same,"viability, T/C",[20],107%
same,"viability, T/C",[21],96.8%
same,"viability, T/C",[22],70.7%
same,"viability, T/C",[23],51.9%
same,"viability, T/C",[24],32.6%
same,"viability, T/C",[25],94.3%
same,"viability, T/C",[26],101%
same,"viability, T/C",[27],96.7%
same,"viability, T/C",[28],85.6%
same,"viability, T/C",[29],79.9%
same,"viability, T/C",[30],32.2%
same,"viability, T/C",[31],88.1%
same,"viability, T/C",[32],103%
same,"viability, T/C",[33],94.8%
same,"viability, T/C",[34],111%
same,"viability, T/C",[35],67.1%
same,"viability, T/C",[36],37.1%
